Common to all, as to type: functional
The test system of assay [1] is Staphylococcus aureus. Nature of the assay: Antibacterial activity against methicillin-resistant Staphylococcus aureus by agar dilution method. (In agar dilution, organisms are placed on agar that contains the substance at set levels.)
Assay [2] deals with Staphylococcus epidermidis. Nature of the assay: Antibacterial activity against methicillin-susceptible Staphylococcus epidermidis by agar dilution method.
Assay [3] relates to Staphylococcus aureus. Nature of the assay: Antibacterial activity against methicillin-resistant Staphylococcus aureus ATCC 43300 by broth micro dilution technique.
Assay [4] deals with Haemophilus influenzae. The assay is described as follows: Antibacterial activity against Haemophilus influenzae by agar dilution method.
Assay [5] has as its system Staphylococcus aureus. Nature of the assay: Antibacterial activity against Staphylococcus aureus ATCC 25923 by broth micro dilution technique.
Assay [6] concerns Staphylococcus aureus. The assay is described as follows: Antibacterial activity against methicillin-susceptible Staphylococcus aureus by agar dilution method.
Assay [7] concerns Streptococcus pneumoniae. Nature of the assay: Antibacterial activity against penicillin-susceptible Streptococcus pneumoniae by agar dilution method.
Assay [8] deals with Staphylococcus epidermidis. The assay is described as follows: Antibacterial activity against methicillin-resistant Staphylococcus epidermidis ATCC 12228 by broth micro dilution technique.
For assay [9], the system named is Staphylococcus aureus. The assay is described as follows: Antibacterial activity against methicillin-susceptible Staphylococcus aureus ATCC 29213 by broth micro dilution technique.
Assay [10] relates to Streptococcus pneumoniae. The assay is described as follows: Antibacterial activity against penicillin-resistant Streptococcus pneumoniae by agar dilution method.
For assay [11], the system named is Staphylococcus epidermidis. Nature of the assay: Antibacterial activity against methicillin-resistant Staphylococcus epidermidis by agar dilution method.

In brackets after ≈: the same amount, converted by molar mass.

In the case of `CC1(C)S[C@@H]2[C@H](NC(=O)Cc3ccccc3)C(=O)N2[C@H]1C(=O)O` [PENICILLIN G], the MIC in assay [1] was found to be 64 µg/mL (≈ 191 µM); in assay [2], 4 µg/mL (≈ 12 µM); in assay [3], 64 µg/mL (≈ 191 µM); in assay [4] it was 16 µg/mL (≈ 47.8 µM); in assay [5] it was 0.0625 µg/mL (≈ 0.187 µM); in assay [6], 0.5 µg/mL (≈ 1.5 µM). Further, the MIC worked out at 2 µg/mL (≈ 5.98 µM) in assay [7]; 2 µg/mL (≈ 5.98 µM) in assay [8]; 1 µg/mL (≈ 2.99 µM) in assay [9]; 64 µg/mL (≈ 191 µM) in assay [10]; 64 µg/mL (≈ 191 µM) in assay [11].
With `CCCC[C@H](CN(O)C=O)C(=O)N1CCC[C@H]1C(=O)Nc1ccc(F)c[n+]1[O-]`, the MIC in [1] worked out at 0.125 µg/mL (≈ 0.315 µM); in assay [2], 0.5 µg/mL (≈ 1.26 µM); in [3], 0.5 µg/mL (≈ 1.26 µM); in [4], 2 µg/mL (≈ 5.05 µM); in assay [5] it was 0.5 µg/mL (≈ 1.26 µM); in [6] it was 0.5 µg/mL (≈ 1.26 µM). In addition, the MIC worked out at 0.125 µg/mL (≈ 0.315 µM) in assay [7]; 1 µg/mL (≈ 2.52 µM) in assay [8]; 2 µg/mL (≈ 5.05 µM) in assay [9]; 0.5 µg/mL (≈ 1.26 µM) in [10]; 0.125 µg/mL (≈ 0.315 µM) in assay [11].
Take `C=C1C[C@@H](C(=O)Nc2ccc(F)cn2)N(C(=O)[C@H](CC2CCCC2)CN(O)C=O)C1`: the MIC came out at 0.25 µg/mL (≈ 0.597 µM) in assay [1]; 0.5 µg/mL (≈ 1.19 µM) in [2]; 0.0625 µg/mL (≈ 0.149 µM) in assay [3]; 2 µg/mL (≈ 4.78 µM) in assay [4]; 0.5 µg/mL (≈ 1.19 µM) in assay [5]; 0.5 µg/mL (≈ 1.19 µM) in [6]. For the same compound, the MIC in assay [7] was found to be 0.25 µg/mL (≈ 0.597 µM); in assay [8] it was 0.125 µg/mL (≈ 0.299 µM); in assay [9], 1 µg/mL (≈ 2.39 µM); in assay [10], 0.25 µg/mL (≈ 0.597 µM); in [11] it was 0.5 µg/mL (≈ 1.19 µM).
In the case of `C=C1C[C@@H](C(=O)Nc2ccc(O)cc2)N(C(=O)[C@H](CCCC)CN(O)C=O)C1`, the MIC is 4 µg/mL (≈ 10.3 µM) in assay [3], 8 µg/mL (≈ 20.5 µM) in assay [5], 8 µg/mL (≈ 20.5 µM) in [8] and 32 µg/mL (≈ 82.2 µM) in assay [9].
Consider `C=C1C[C@@H](C(=O)N2CCOCC2)N(C(=O)[C@H](CC2CCCC2)CN(O)C=O)C1`, for which the MIC in assay [3] amounted to 2 µg/mL (≈ 5.08 µM); in [5] it was 4 µg/mL (≈ 10.2 µM); in assay [8], 4 µg/mL (≈ 10.2 µM); in assay [9], 8 µg/mL (≈ 20.3 µM).
For the compound `O=C(O)c1cn(C2CC2)c2cc(N3CCNCC3)c(F)cc2c1=O` [CIPROFLOXACIN], the MIC in [1] came out at 1 µg/mL (≈ 3.02 µM); in assay [2], 0.25 µg/mL (≈ 0.754 µM); in assay [3], 1 µg/mL (≈ 3.02 µM); in [4] it was 0.125 µg/mL (≈ 0.377 µM); in assay [5], 0.5 µg/mL (≈ 1.51 µM); in assay [6], 1 µg/mL (≈ 3.02 µM). Further, the MIC turned out to be 2 µg/mL (≈ 6.04 µM) in [7], 0.25 µg/mL (≈ 0.754 µM) in assay [8], 0.5 µg/mL (≈ 1.51 µM) in [9] and 1 µg/mL (≈ 3.02 µM) in assay [11].
As for `C=C1C[C@@H](C(=O)Nc2ccc(F)c[n+]2[O-])N(C(=O)[C@H](CC2CCCC2)CN(O)C=O)C1`, the MIC in assay [1] came out at 0.125 µg/mL (≈ 0.288 µM); in assay [2], 0.125 µg/mL (≈ 0.288 µM); in assay [3], 0.125 µg/mL (≈ 0.288 µM); in assay [4] it was 2 µg/mL (≈ 4.6 µM); in assay [5], 0.125 µg/mL (≈ 0.288 µM); in assay [6], 0.5 µg/mL (≈ 1.15 µM). The MIC in assay [7] was determined as 0.25 µg/mL (≈ 0.575 µM); in assay [8], 0.5 µg/mL (≈ 1.15 µM); in [9], 2 µg/mL (≈ 4.6 µM); in [10] it was 0.0625 µg/mL (≈ 0.144 µM); in assay [11], 0.25 µg/mL (≈ 0.575 µM).
With `C=C1C[C@@H](C(=O)Nc2ccccc2)N(C(=O)[C@H](CC2CCCC2)CN(O)C=O)C1`, the MIC was 0.25 µg/mL (≈ 0.626 µM) in assay [3], 0.5 µg/mL (≈ 1.25 µM) in [5], 0.5 µg/mL (≈ 1.25 µM) in assay [8] and 1 µg/mL (≈ 2.5 µM) in [9].
Take `C=C1C[C@@H](C(=O)Nc2ccc(F)c[n+]2[O-])N(C(=O)[C@H](CCCC)CN(O)C=O)C1`: the MIC was 1 µg/mL (≈ 2.45 µM) in [3], 2 µg/mL (≈ 4.9 µM) in assay [5], 2 µg/mL (≈ 4.9 µM) in assay [8] and 4 µg/mL (≈ 9.79 µM) in assay [9].
As for `CN[C@H](CC(C)C)C(=O)N[C@H]1C(=O)N[C@@H](CC(N)=O)C(=O)N[C@H]2C(=O)N[C@H]3C(=O)N[C@H](C(=O)N[C@H](C(=O)O)c4cc(O)cc(O)c4-c4cc3ccc4O)[C@H](O)c3ccc(c(Cl)c3)Oc3cc2cc(c3O[C@@H]2O[C@H](CO)[C@@H](O)[C@H](O)[C@H]2O[C@H]2C[C@](C)(N)[C@H](O)[C@H](C)O2)Oc2ccc(cc2Cl)[C@H]1O` [VANCOMYCIN], the MIC in [7] and in [10] was 1 µg/mL (≈ 0.69 µM) throughout.

Values taken from ChEMBL document CHEMBL1667756, “Design, synthesis and antibacterial activity of 3-methylenepyrrolidine formyl hydroxyamino derivatives as novel peptide deformylase inhibitors” (2011).
